Earlier results as cited in patent publication US20230066502A1, “PREDICTION METHOD FOR INDICATION OF AIMED DRUG OR EQUIVALENT SUBSTANCE OF DRUG, PREDICTION APPARATUS, AND PREDICTION PROGRAM” (KARYDO THERAPEUTIX, INC., priority 2020, published 2023).

Conditions: for occurrence frequency of adverse event Blood glucose decreased / occurrence frequency of adverse event Sleep disorder: FIG. 3 example of training data, already reported adverse event-related information, cases of this adverse event / total adverse event cases for the drug; for occurrence frequency of adverse event Low blood sugar / occurrence frequency of adverse event sleepiness: FIG. 7 example of second training data calculated from FAERS adverse event data, maximum value 1

Row | SMILES | occurrence frequency of adverse event Blood glucose decreased | occurrence frequency of adverse event Sleep disorder | occurrence frequency of adverse event Low blood sugar | occurrence frequency of adverse event sleepiness
1 | OC[C@H]1O[C@@H](c2ccc(Cl)c(Cc3ccc(O[C@H]4CCOC4)cc3)c2)[C@H](O)[C@@H](O)[C@@H]1O [EMPA, empagliflozin] | 0.141 | 0.007 | 0.12 | 0.01
2 | O=C1CCc2ccc(OCCCCN3CCN(c4cccc(Cl)c4Cl)CC3)cc2N1 [aripiprazole] | 0.009 | 0.026 | 0.0 | 0.5
